From patent US4309554A, “3-(2-Thiophenesulfonyl)-2-halopropanenitriles” (The Dow Chemical Company, priority 1980, dated 1982) come the findings set out here.

In brackets after ≈: the same amount, converted by molar mass.

Assay type in all cases: cell-based
Test [1] deals with Ceratocystis IPS. Nature of the test: in vitro agar Petri dish dilution test, MIC against Ceratocystis IPS. The settings on record: Ceratocystis IPS (CI). The source says: (§1) The compounds have antimicrobial utility. In conventional in vitro agar Petri dish dilution tests for determining antimicrobial activity, the compounds of the Examples had minimum inhibitory concentrations (MIC) against the indicated organisms in parts per million (ppm) as follows: […]

Test [2] concerns Pseudomonas Sp. Strain 10. Nature of the test: in vitro agar Petri dish dilution test, MIC against Pseudomonas Sp. Strain 10. The settings on record: Pseudomonas Sp. Strain 10 (Ps 10).
From the text: as §1

Test [3] deals with A. niger. The experiment in a line: in vitro agar Petri dish dilution test, MIC against A. niger. The settings on record: Aspergillus niger; A. niger (An).
From the text: as §1

For test [4], the system named is B. subtilis. The experiment in a line: in vitro agar Petri dish dilution test, MIC against B. subtilis. The settings on record: Bacillus subtilis; B. subtilis (head Be, footnote Bs).
From the text: as §1

The subject of test [5] is C. pelliculosa. Nature of the test: in vitro agar Petri dish dilution test, MIC against C. pelliculosa. The settings on record: Hansenula anomala; C. pelliculosa (Cp).
From the text: as §1

For test [6], the system named is Trichoderm Sp. Madison P42. Nature of the test: in vitro agar Petri dish dilution test, MIC against Trichoderm Sp. Madison P42. The settings on record: Trichoderm Sp. Madison P42 (Tr 42).
From the text: as §1

The test system of test [7] is A. aerogenes. Nature of the test: in vitro agar Petri dish dilution test, MIC against A. aerogenes. The settings on record: Klebsiella aerogenes; A. aerogenes (Aa).
From the text: as §1

Test [8] has as its system T. mentagrophytes. The experiment in a line: in vitro agar Petri dish dilution test, MIC against T. mentagrophytes. The settings on record: Trichophyton mentagrophytes; T. mentagrophytes (Tm).
From the text: as §1

The test system of test [9] is C albicans. Nature of the test: in vitro agar Petri dish dilution test, MIC against C albicans. The settings on record: C albicans (Ca).
From the text: as §1

In test [10] the test system is P. pullulans. Nature of the test: in vitro agar Petri dish dilution test, MIC against P. pullulans. The settings on record: P. pullulans (Pp).
From the text: as §1

For test [11], the system named is S. aureus. Nature of the test: in vitro agar Petri dish dilution test, MIC against S. aureus. The settings on record: Staphylococcus aureus; S. aureus (Sa).
From the text: as §1

For test [12], the system named is S. typhosa. Nature of the test: in vitro agar Petri dish dilution test, MIC against S. typhosa. The settings on record: S. typhosa (St).
From the text: as §1

Test [13] concerns E. coli. The experiment in a line: in vitro agar Petri dish dilution test, MIC against E. coli. The settings on record: Escherichia coli; E. coli (Ec).
From the text: as §1

In general, MIC refers to the lowest concentration that inhibits growth of the organism. For the compound `Cc1ccc(S(=O)(=O)CC(Cl)C#N)s1` (stereo not drawn) [2(a)], the MIC in test [1] was determined as 50 µg/mL (≈ 200 µM); in [2], 500 µg/mL (≈ 2000 µM); in test [3], 50 µg/mL (≈ 200 µM); in test [4] it was 10 µg/mL (≈ 40 µM); in test [5], 50 µg/mL (≈ 200 µM); in test [6], 50 µg/mL (≈ 200 µM). The MIC in test [7], in test [8], in test [9], in test [10] and in test [11] was 50 µg/mL (≈ 200 µM) throughout.

As for `CCc1ccc(S(=O)(=O)CC(Cl)C#N)s1` (stereo not drawn) [2(b)], the MIC in test [1] came to 100 µg/mL (≈ 379 µM); in test [2], 500 µg/mL (≈ 1900 µM); in [3], 500 µg/mL (≈ 1900 µM); in test [4] it was 5 µg/mL (≈ 19 µM); in test [5], 100 µg/mL (≈ 379 µM); in test [12], 5 µg/mL (≈ 19 µM). Further, the minimum inhibitory concentration (MIC) was determined as 500 µg/mL (≈ 1900 µM) in test [6]; 100 µg/mL (≈ 379 µM) in test [7]; 50 µg/mL (≈ 190 µM) in [8]; 500 µg/mL (≈ 1900 µM) in test [9]; 500 µg/mL (≈ 1900 µM) in test [10]; 5 µg/mL (≈ 19 µM) in [11]. For the same compound, the MIC in [13] came to 50 µg/mL (≈ 190 µM).

Take `CCCCc1ccc(S(=O)(=O)CC(Cl)C#N)s1` (stereo not drawn) [2(c)]: the MIC is 50 µg/mL (≈ 171 µM) in test [1]; 500 µg/mL (≈ 1710 µM) in [2]; 500 µg/mL (≈ 1710 µM) in test [3]; 5 µg/mL (≈ 17.1 µM) in [4]; 50 µg/mL (≈ 171 µM) in [5]; 500 µg/mL (≈ 1710 µM) in [6]. Also, the MIC was found to be 500 µg/mL (≈ 1710 µM) in test [7]; 50 µg/mL (≈ 171 µM) in test [8]; 50 µg/mL (≈ 171 µM) in test [9]; 50 µg/mL (≈ 171 µM) in test [10]; 5 µg/mL (≈ 17.1 µM) in test [11]; 500 µg/mL (≈ 1710 µM) in test [13].

In the case of `N#CC(Cl)CS(=O)(=O)c1cccs1` (stereo not drawn) [Example 1, 3-(2-Thiophenesulfonyl)-2-chloropropane nitrile], the MIC in [1] was 100 µg/mL (≈ 424 µM); in [2], 100 µg/mL (≈ 424 µM); in [3] it was 100 µg/mL (≈ 424 µM); in test [4] it was 100 µg/mL (≈ 424 µM); in test [5], 10 µg/mL (≈ 42.4 µM); in test [6], 100 µg/mL (≈ 424 µM). Moreover, the MIC amounted to 100 µg/mL (≈ 424 µM) in test [7]; 10 µg/mL (≈ 42.4 µM) in [8]; 10 µg/mL (≈ 42.4 µM) in [9]; 10 µg/mL (≈ 42.4 µM) in [10]; 100 µg/mL (≈ 424 µM) in test [11]; 100 µg/mL (≈ 424 µM) in test [13].
